# Reference: ChEMBL document CHEMBL1201862, “PubChem BioAssay data set” (2004)
#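 Test compounds were applied to cells in 96-well plates for 48 hours at 5 doses. GI50 is the concentration that inhibits growth by half.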 Active and inactive are the calls of the source. Rule as the data show it: active = GI50 up to about 1.1 µM and inactive = higher.
# Columns and labels:
# Experiment in all cases: NCI tumour cell line growth inhibition, 48 h
# [1] = test system: U-251
# [2] = test system: MOLT-4
# [3] = test system: SF-268
# [4] = test system: ACHN
# [5] = test system: HCC 2998
# [6] = test system: OVCAR-8
# [7] = test system: NCI-H226
# [8] = test system: MDA-MB-231
# [9] = test system: K562
# [10] = test system: DU-145
# [11] = test system: Hs-578T
# [12] = test system: NCI-H522
# [13] = test system: SK-MEL-5
# [14] = test system: CCRF-CEM
# [15] = test system: SK-MEL-2
# [16] = test system: A549
# [17] = test system: CAKI-1
# [18] = test system: SR
# [19] = test system: SN12C
# [20] = test system: OVCAR-4
# [21] = test system: HCT-15
# [22] = test system: 786-0
# [23] = test system: COLO 205
# [24] = test system: LOX IMVI
# [25] = test system: MDA-N
# [26] = test system: TK-10
# [27] = test system: SK-OV-3
# [28] = test system: MDA-MB-435
# [29] = test system: EKVX
# [30] = test system: OVCAR-3
# [31] = test system: A498
# [32] = test system: IGROV-1
# [33] = test system: SK-MEL-28
# [34] = test system: M14
# [35] = test system: UACC-62
# [36] = test system: Malme-3M
# [37] = test system: SF-295
# [38] = test system: RXF 393
# [39] = test system: HOP-62
# [40] = test system: HOP-92
# [41] = test system: NCI-H23
# [42] = test system: SNB-75
# [43] = test system: NCI-H460
# [44] = test system: UO-31
# [45] = test system: MCF7
# [46] = test system: SW-620
# [47] = test system: NCI/ADR-RES
# [48] = test system: BT-549
# [49] = test system: HL-60
# [50] = test system: HT-29
# [51] = test system: OVCAR-5
# [52] = test system: SF-539
# [53] = test system: UACC-257
# [54] = test system: T47D
# [55] = test system: HCT-116
# [56] = test system: KM12
# [57] = test system: RPMI-8226
# [58] = test system: PC-3
# [59] = test system: SNB-19
compound,measurement,setting,value
S=C1NCCN1C(=S)Nc1ccccc1,GI50,[1],> 100 µM (inactive)
same,GI50,[2],34.8 µM (inactive)
same,GI50,[3],99.5 µM (inactive)
same,GI50,[4],> 100 µM (inactive)
same,GI50,[5],65.5 µM (inactive)
same,GI50,[6],> 100 µM (inactive)
same,GI50,[7],51.4 µM (inactive)
same,GI50,[8],> 100 µM (inactive)
same,GI50,[9],74.6 µM (inactive)
same,GI50,[10],> 100 µM (inactive)
same,GI50,[11],84.1 µM (inactive)
same,GI50,[12],60.8 µM (inactive)
same,GI50,[13],> 100 µM (inactive)
same,GI50,[14],62.2 µM (inactive)
same,GI50,[15],> 100 µM (inactive)
same,GI50,[16],44.1 µM (inactive)
same,GI50,[17],46.8 µM (inactive)
same,GI50,[18],42.4 µM (inactive)
same,GI50,[19],> 100 µM (inactive)
same,GI50,[20],21.9 µM (inactive)
same,GI50,[21],68.9 µM
same,GI50,[22],> 100 µM (inactive)
same,GI50,[23],71.6 µM (inactive)
same,GI50,[24],> 100 µM (inactive)
same,GI50,[25],> 100 µM (inactive)
same,GI50,[26],95.9 µM (inactive)
same,GI50,[27],> 100 µM (inactive)
same,GI50,[28],46.5 µM (inactive)
same,GI50,[29],33.9 µM (inactive)
same,GI50,[30],90.8 µM (inactive)
same,GI50,[31],32.4 µM (inactive)
same,GI50,[32],> 100 µM (inactive)
same,GI50,[33],56.2 µM (inactive)
same,GI50,[34],61.5 µM (inactive)
same,GI50,[35],96.8 µM (inactive)
same,GI50,[36],> 100 µM (inactive)
same,GI50,[37],> 100 µM (inactive)
same,GI50,[38],10.5 µM (inactive)
same,GI50,[39],> 100 µM (inactive)
same,GI50,[40],66.8 µM (inactive)
same,GI50,[41],60.4 µM (inactive)
same,GI50,[42],32.4 µM (inactive)
same,GI50,[43],89.5 µM (inactive)
same,GI50,[44],36.7 µM (inactive)
same,GI50,[45],> 100 µM (inactive)
same,GI50,[46],> 100 µM (inactive)
same,GI50,[47],> 100 µM (inactive)
same,GI50,[48],83 µM (inactive)
same,GI50,[49],> 100 µM (inactive)
same,GI50,[50],> 100 µM (inactive)
same,GI50,[51],> 100 µM (inactive)
same,GI50,[52],46.3 µM (inactive)
same,GI50,[53],96.2 µM (inactive)
same,GI50,[54],40.1 µM (inactive)
same,GI50,[55],91.2 µM (inactive)
same,GI50,[56],49.9 µM (inactive)
COC1CC(OC2CCC3(C)C(=CCC4C3C(OC(C)=O)C(OC(=O)CC(C)C)C3(C)C(C(C)=O)CCC43O)C2)OC(C)C1OC1CC(OC)C(OC2CC(OC)C(OC3OC(C)C(OC4OC(CO)C(O)C(O)C4O)C(OC)C3O)C(C)O2)C(C)O1 (configuration not stated),GI50,[1],> 75 µM (inactive)
same,GI50,[2],> 75 µM (inactive)
same,GI50,[57],> 75 µM (inactive)
same,GI50,[3],> 75 µM (inactive)
same,GI50,[4],> 75 µM (inactive)
same,GI50,[5],> 75 µM (inactive)
same,GI50,[6],> 75 µM (inactive)
same,GI50,[7],> 75 µM (inactive)
same,GI50,[8],> 75 µM (inactive)
same,GI50,[9],> 75 µM (inactive)
same,GI50,[10],> 75 µM (inactive)
same,GI50,[11],> 75 µM (inactive)
same,GI50,[12],> 75 µM (inactive)
same,GI50,[13],> 75 µM (inactive)
same,GI50,[58],> 75 µM (inactive)
same,GI50,[14],> 7.5 µM (inactive)
same,GI50,[15],> 75 µM (inactive)
same,GI50,[16],> 75 µM (inactive)
same,GI50,[17],> 75 µM (inactive)
same,GI50,[19],> 75 µM (inactive)
same,GI50,[20],> 75 µM (inactive)
same,GI50,[21],> 75 µM
same,GI50,[22],> 75 µM (inactive)
same,GI50,[23],> 75 µM (inactive)
same,GI50,[24],> 75 µM (inactive)
same,GI50,[25],> 75 µM (inactive)
same,GI50,[26],> 75 µM (inactive)
same,GI50,[27],> 75 µM (inactive)
same,GI50,[28],> 75 µM (inactive)
same,GI50,[29],> 75 µM (inactive)
same,GI50,[30],> 75 µM (inactive)
same,GI50,[31],> 75 µM (inactive)
same,GI50,[32],> 75 µM (inactive)
same,GI50,[33],> 75 µM (inactive)
same,GI50,[34],> 75 µM (inactive)
same,GI50,[35],> 75 µM (inactive)
same,GI50,[37],> 75 µM (inactive)
same,GI50,[39],11.6 µM (inactive)
same,GI50,[40],> 75 µM (inactive)
same,GI50,[41],> 75 µM (inactive)
same,GI50,[42],> 75 µM (inactive)
same,GI50,[43],> 7.5 µM (inactive)
same,GI50,[44],> 75 µM (inactive)
same,GI50,[45],> 75 µM (inactive)
same,GI50,[46],> 75 µM (inactive)
same,GI50,[47],> 75 µM (inactive)
same,GI50,[59],> 75 µM (inactive)
same,GI50,[48],> 75 µM (inactive)
same,GI50,[49],> 75 µM (inactive)
same,GI50,[50],> 75 µM (inactive)
same,GI50,[51],> 75 µM (inactive)
same,GI50,[52],> 75 µM (inactive)
same,GI50,[53],> 75 µM (inactive)
same,GI50,[54],> 75 µM (inactive)
same,GI50,[55],> 75 µM (inactive)
same,GI50,[56],> 75 µM (inactive)
